Patent US9409864B2, “Sulfonamide TRPA1 receptor antagonists” (ARIO PHARMA LIMITED, priority 2013, dated 2016)
pIC50: −log10 of the molar value. Read-outs that look alike come from different tables or passages of the source.

Assays:
[1] = biological target: T1, native human TRPA1 receptors (Homo sapiens, UniProt O75762); assay: PF-4840154 (1 μM)-induced Ca2+ fluorescence measurements in A549 cell line; assay type: cell-based; settings: for inhibition at 10 µM: 10 μM compound against 1 μM PF-4840154, A549 cells; for pIC50: against PF-4840154 (1 μM)-evoked [Ca2+]i mobilization, A549 cells
T1 construct: stably expressing native human TRPA1 receptors were used; endogenous in cells; host or cells: A549 human lung adenocarcinoma epithelial cell line
T1 sequence (O75762 whole entry): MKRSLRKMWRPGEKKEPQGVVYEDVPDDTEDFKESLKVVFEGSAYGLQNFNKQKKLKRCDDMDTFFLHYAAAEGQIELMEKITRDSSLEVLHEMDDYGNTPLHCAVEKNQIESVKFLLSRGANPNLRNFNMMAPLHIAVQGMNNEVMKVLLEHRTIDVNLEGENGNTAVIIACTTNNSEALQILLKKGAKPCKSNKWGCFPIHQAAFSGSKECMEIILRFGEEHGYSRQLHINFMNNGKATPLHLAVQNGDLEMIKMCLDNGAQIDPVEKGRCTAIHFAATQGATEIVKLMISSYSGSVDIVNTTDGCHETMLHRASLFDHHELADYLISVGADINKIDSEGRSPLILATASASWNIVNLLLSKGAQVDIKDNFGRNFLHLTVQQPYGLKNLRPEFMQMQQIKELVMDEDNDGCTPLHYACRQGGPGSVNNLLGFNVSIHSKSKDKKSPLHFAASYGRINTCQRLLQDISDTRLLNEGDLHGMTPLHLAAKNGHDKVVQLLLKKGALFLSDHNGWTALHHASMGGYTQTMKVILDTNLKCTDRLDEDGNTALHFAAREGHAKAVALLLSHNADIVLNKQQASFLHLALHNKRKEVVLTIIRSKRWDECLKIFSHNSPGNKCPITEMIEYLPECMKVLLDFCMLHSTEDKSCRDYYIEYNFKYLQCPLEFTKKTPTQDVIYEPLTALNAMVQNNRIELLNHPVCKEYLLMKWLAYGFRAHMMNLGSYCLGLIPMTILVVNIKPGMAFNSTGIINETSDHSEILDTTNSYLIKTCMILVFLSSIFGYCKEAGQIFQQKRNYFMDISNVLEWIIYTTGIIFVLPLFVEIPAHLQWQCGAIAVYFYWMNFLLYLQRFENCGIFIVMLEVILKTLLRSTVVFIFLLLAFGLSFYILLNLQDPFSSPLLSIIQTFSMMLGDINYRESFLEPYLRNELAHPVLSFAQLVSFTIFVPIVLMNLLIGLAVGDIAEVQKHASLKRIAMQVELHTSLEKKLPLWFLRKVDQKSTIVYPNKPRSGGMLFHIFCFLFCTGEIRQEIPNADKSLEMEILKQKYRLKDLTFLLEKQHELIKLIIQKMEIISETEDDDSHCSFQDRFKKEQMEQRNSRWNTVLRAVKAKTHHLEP
Description: PF-4840154 (1 μM)-Induced Ca^2+ Fluorescence Measurements in A549 Cell Line
Human lung adenocarcinoma epithelial cell line (A549) stably expressing native human TRPA1 receptors were used. The cells were cultured in medium consisting of Eagle's minimal essential medium (EMEM) supplemented with 10% fetal bovine serum (FBS), penicillin (100 IU/ml), streptomycin ([…]), L-glutamine (2 mM), sodium bicarbonate (2.5 g/L) and HEPES (24 mM). Cells were kept at 37° C. in 5% CO2/humidified air. For the experiments the cells were seeded at a density of 16,000 cells/well into 96-well black, clear-bottom plates. After 24 hours incubation the cells were loaded with medium supplemented with 2.5 mM probenecid, 3 μM of the calcium sensitive fluorescent dye Fluo-4 AM and 0.01% pluronic acid, for 30 min at 37° C. Afterwards the loading solution was aspirated and 100 μl/well of assay buffer: Hank's Balanced Salt Solution (HBSS) supplemented with 2.5 mM probenecid and 500 μM Brilliant Black (Aldrich) was added. Stock solutions (100 mM) of ligands were made in Dimethyl Sulfoxide (DMSO) and stored at −20° C. Serial dilutions of ligands for experimental use were made in HBSS buffer. After placing both plates (cell culture and compound plate) into the FlexStation II (Molecular Device, Union City, Calif. 94587, US), fluorescence changes were measured. On-line additions were carried out in a volume of […]. To facilitate drug diffusion into the wells in antagonist type experiments, the studies were performed at 36.5° C. and three cycles of mixing (25 μl from each well moved up and down 3 times) were performed immediately after antagonist injection to the wells. All exemplified compounds were tested alone (to address residual agonistic activity) and against 1 μM of PF-4840154 to address inhibitory activity at the initial concentration of 10 μM. For selected examples the entire inhibitory concentration-response curves were constructed and the IC50 value calculated.
PF-4840154 (1 μM) increased [Ca^2+] in the vast majority (95%) of cultured cells which were thereby identified as TRPA1 expressing cells.

[2] = test system: oxaliplatin-induced mechanical hyperalgesia in rats; assay: Oxaliplatin-induced mechanical hyperalgesia in rats; assay type: in vivo; settings: Rattus norvegicus, 168 h, 30 μmol/kg oral, 7 days post i.v. oxaliplatin 2.5 mg/kg
Description: Oxaliplatin-Induced Mechanical Hyperalgesia in Rats
The method described by Nassini et al. (Pain, 2011, 152(7), 1621-31) was used with minor modifications. Restrained rats were treated with a single intravenous bolus injection of oxaliplatin (2.5 mg/kg) dissolved in normal saline. This approach was sufficient to elicit reproducible allodynic behaviour evident 3 days post injection and during the day thereafter. For convenience all acute experiments were conducted 7 days post injection when compounds were orally administered at 30 μmol/kg.

[3] = test system: PF-4840154-induced mechanical hyperalgesia in rats; assay: Agonist (PF-4840154)-induced mechanical hyperalgesia in rats; assay type: in vivo; settings: Rattus norvegicus, 30 μmol/kg oral, PF-4840154 0.05 nmol/50 μl/paw intraplantar
Text: Agonist (PF-4840154)-Induced Mechanical Hyperalgesia in Rats
The method is used to investigate the anti-hyperalgesic effects of the compounds listed in the present invention following agonist (PF-4840154)-induced hyperalgesic responses. The activity is indicative of TRPA1 receptor occupancy following oral dosing. Specifically, male SD rats (Charles River, Italy) weighing 70-100 g. were used. The anti-hyperalgesic effects were investigated using the electronic dynamometer test. PF-4840154 (Sigma, USA) was used to induce mechanical hyperalgesia. Local, intraplantar injection of PF-4840154 at 0.05 nmol/50 μl/paw caused the reduction of the hind paw withdrawal response induced by mechanical stimuli. Mechanical stimulation was induced in basal condition and 30, 60, 120, 180 and 240 minutes after the oral administration of the antagonists dissolved in 2.5% DMSO and 30% Solutol. Compounds were orally administered (30 μmol/kg/10 ml) to rats 1 hour before the injection of PF-4840154 into the plantar surface of a rat's hind using a micro syringe.

[4] = read-out: % of reversal of mechanical allodynia
[5] = read-out: Maximal inhibition (%)

Structure (SMILES)	inhibition at 10 µM [1] [%]	pIC50 [1]	inhibition in vivo at 30 µmol/kg [2, 4] [%]	inhibition in vivo at 30 µmol/kg [2, 5] [%]	inhibition in vivo at 30 µmol/kg [3, 4] [%]	inhibition in vivo at 30 µmol/kg [3, 5] [%]
CCOc1cc(CNC(=O)C2(N(CC)S(=O)(=O)c3ccc(Cl)s3)CC2)cc(-c2ccc(C(F)(F)F)cc2)n1 [Example 53, 1-[(5-chloro-2-thienyl)sulfonyl-ethyl-amino]-N-[[2-ethoxy-6-[4-(trifluoromethyl)phenyl]-4-pyridyl]methyl] cyclopropanecarboxamide]	100	7.77	83	83	89	89
CCN(C1(C(=O)NCc2cccc(-c3ccc(C(F)(F)F)cc3)c2)CC1)S(=O)(=O)c1ccc(Cl)cc1 [Example 30, 1-[(4-chlorophenyl)sulfonyl-ethyl-amino]-N-[[3-[4-(trifluoromethyl)phenyl]phenyl]methyl]cyclopropanecarboxamide]	100	7.00			82	82
CCN(C1(C(=O)NCc2cccc(-c3ccc(C(F)(F)F)cc3)c2)CC1)S(=O)(=O)c1ccc(Cl)s1 [Example 59, 1-[(5-chloro-2-thienyl)sulfonyl-ethyl-amino]-N-[[3-[4-(trifluoromethyl)phenyl]phenyl]methyl]cyclopropanecarboxamide]	99	7.42	67	67	111	111
C=C(C(=O)NCc1ccnc(-c2ccc(OC(F)(F)F)cc2)c1)N(CC)S(=O)(=O)c1ccc(Cl)cc1 [Example 5, 2-[(4-chlorophenyl)sulfonyl-ethyl-amino]-N-[[2-[4-(trifluoromethoxy)phenyl]-4-pyridyl]methyl]prop-2-enamide]	99	7.00			76	76
C=C(C(=O)NCc1cc(OC)nc(-c2ccc(C(F)(F)F)cc2)c1)N(CC)S(=O)(=O)c1ccc(F)cc1 [Example 40, 2-[ethyl-(4-fluorophenyl)sulfonyl-amino]-N-[[2-methoxy-6-[4-(trifluoromethyl)phenyl]-4-pyridyl]methyl]prop-2-enamide]	100	7.80	103	103		
C=C(C(=O)NCc1cc(-c2ccc(C(F)(F)F)cc2)nc(N(C)C)c1)N(CC)S(=O)(=O)c1ccc(F)cc1 [Example 37, N-[[2-dimethylamino-6-[4-(trifluoromethyl)phenyl]-4-pyridyl]methyl]-2-[ethyl-(4-fluorophenyl)sulfonyl-amino]prop-2-enamide]	100	7.74	82	82	95	95
CCN(C1(C(=O)NCc2cc(-c3ccc(C(F)(F)F)cc3)nc(N3CCCC3)c2)CC1)S(=O)(=O)c1ccc(F)cc1 [Example 51, 1-[ethyl-(4-fluorophenyl)sulfonyl-amino]-N-[[2-pyrrolidin-1-yl-6-[4-(trifluoromethyl)phenyl]-4-pyridyl]methyl]cyclopropanecarboxamide]	100	7.39	65	65	76	76
CCN(C1(C(=O)NCc2ccnc(-c3ccc(OC(F)(F)F)cc3)c2)CC1)S(=O)(=O)c1ccc(F)cc1 [Example 26, 1-[ethyl-(4-fluorophenyl)sulfonyl-amino]-N-[[2-[4-(trifluoromethoxy)phenyl]-4-pyridyl]methyl]cyclopropanecarboxamide]	100	6.82			64	64
CCN(C1(C(=O)NCc2cc(-c3ccc(C(F)(F)F)cc3)nc(N3CCCC3)c2)CC1)S(=O)(=O)c1ccc(Cl)s1 [Example 34, 1-[(5-chloro-2-thienyl)sulfonyl-ethyl-amino]-N-[[2-pyrrolidin-1-yl-6-[4-(trifluoromethyl)phenyl]-4-pyridyl]methyl]cyclopropanecarboxamide]	100	7.60	71	71		
C=C(C(=O)NCc1ccnc(-c2ccc(OC(F)(F)F)cc2)c1)N(C)S(=O)(=O)c1ccc(Cl)cc1 [Example 4, 2-[(4-chlorophenyl)sulfonyl-methyl-amino]-N-[[2-[4-(trifluoromethoxy)phenyl]-4-pyridyl]methyl]prop-2-enamide]	98	7.11			67	67
CCN(C1(C(=O)NCc2cc(OC)nc(-c3ccc(C(F)(F)F)cc3)c2)CC1)S(=O)(=O)c1ccc(Cl)s1 [Example 50, 1-[(5-chloro-2-thienyl)sulfonyl-ethyl-amino]-N-[[2-methoxy-6-[4-(trifluoromethyl)phenyl]-4-pyridyl]methyl] cyclopropanecarboxamide]	100	7.72	82	82	76	76
C=C(C(=O)NCc1ccnc(-c2ccc(C(F)(F)F)cc2)c1)N(CC)S(=O)(=O)c1ccc(Cl)s1 [Example 12, 2-[(5-chloro-2-thienyl)sulfonyl-ethyl-amino]-N-[[2-[4-(trifluoromethyl)phenyl]-4-pyridyl]methyl]prop-2-enamide]	100	7.48				
CCN(C1(C(=O)NCc2ccnc(-c3ccc(OC(F)(F)F)cc3)c2)CC1)S(=O)(=O)c1ccc(Cl)cc1 [Example 27, 1-[(4-chlorophenyl)sulfonyl-ethyl-amino]-N-[[2-[4-(trifluoromethoxy)phenyl]-4-pyridyl]methyl]cyclopropanecarboxamide]	100	6.87				
